Experimental data from US11053281B2, “Peptoid affinity ligands” (MIKE-ANN, LLC, priority 2016, dated 2021).
Read-outs that look alike come from different tables or passages of the source. *1 amine or outer side, *2 acyl side, *3 side chain or, on linkers, in order; H or OH if unused. Where a SMILES comes first, the peptide text is derived from it. [ ]: non-standard residue; d: D form. Gly(N(CH2)2(3-indolyl)) = O=C(O)CNCCc1c[nH]c2ccccc12; N(2-mercaptoethyl)Gly = O=C(CN(CCS[*:3])[*:1])[*:2]; Gly(N-(CH2)3-guanidino) = N=C(N)NCCCNCC(=O)O; NGly(CH2(3-pyridyl)) = O=C(O)CNCc1cccnc1; N(CH2CH2COOH)Gly = O=C(O)CCNCC(=O)O; Gly(N(CH2)3NH2) = NCCCNCC(=O)O; Cysteamide = C(CS[*:3])N[*:1]; X1 = CSCCN(CC(=O)[*:2])[*:1]; Nphe = O=C(O)CNCc1ccccc1; NPrGly = CCCNCC(=O)O; Nme = COCCNCC(=O)O; Sar = CNCC(=O)O

Tested on: polyclonal human IgG
Test: Adsorption isotherm of peptoid affinity resins against polyclonal human IgG
Assay type: binding
Set-up: Qmax: unit not given here
Details: for Qmax: maximum capacity (qmax) of resin from isotherm fit; for Kd: peptoid ligand conjugated to chromatographic resin, IgG in PBS, hyperbola fit of isotherm, Kd given in molar, read-out: Kd x 10^−6
Experimental: The affinity for the peptoid-resin combinations was determined by measuring the adsorption isotherm of each resin against polyclonal human IgG (Pakimna et al., J Applied Sci., 12(11): 1136-1141, 2012). Briefly, 0.050 mL of 50% resin slurry was pipetted into 6 individual wells of a 96-well filter plate (0.45 micron, PVDF, Harvard Apparatus). The resin was washed with 2×250 μL PBS using a vacuum manifold. To an individual well, 0.25 mL of a human polyclonal IgG solution at different concentrations (10, 5, 2.5, 1.25, 0.625, and 0.3125 mg/mL) was added. The resin/IgG suspension was agitated gently on a rocking table for 30 minutes. The fluid was then collected via vacuum, and the resin was washed with 0.25 mL of PBS. The filtrate and wash were then analyzed by the BCA assay to determine the residual IgG concentration relative to the starting concentration of the solution.
The equilibrium concentrations were then used to determine the capacity of the resin at each IgG concentration using the following formula: q=Volumesample×(Initial Concentration−Equilibrium Concentration)/Volumeresin
A plot of q versus equilibrium concentration was generated and the data fit with a hyperbola to determine the affinity constant (Kd) and the maximum capacity (qmax) according to the below formula, where C=the equilibrium concentration of antibody in solution: q=qmax×C/(kd+C) Typical adsorption isotherm is shown in FIG. 2. Tabulated Kd and qmax data is found in Table 2.

| Kd (Table 3) | Kd (Table 2) | Structure (SMILES) | Qmax (Table 3) | Qmax (Table 2) |
| --- | --- | --- | --- | --- |
| 6.1 µM | – | CCCN(CC(=O)N(CCc1c[nH]c2ccccc12)CC(=O)NCCS)C(=O)CN(CCc1c[nH]c2ccccc12)C(=O)CN(C)C(=O)CN(CCCNC(=N)N)C(=O)CN(CCOC)C(=O)CNCc1cccnc1 [Ligand 15-28-5] (H-[NGly(CH2(3-pyridyl))][Nme][Gly(N-(CH2)3-guanidino)][Sar][Gly(N(CH2)2(3-indolyl))][NPrGly][Gly(N(CH2)2(3-indolyl))]-Cysteamide) | 61 | – |
| – | 3.6 µM | NC(=O)NCCCN(CC(=O)N(CCc1c[nH]c2ccccc12)CC(=O)NCCS)C(=O)CN(CCc1c[nH]c2ccccc12)C(=O)CNCc1cccnc1 [Ligand 16-77-1] | – | 61 |
| – | 9.3 µM | CCCNCC(=O)N(CCc1c[nH]c2ccccc12)CC(=O)NCC(=O)N(CCCNC(=N)N)CC(=O)N(CCc1c[nH]c2ccccc12)CC(=O)N(CC(=O)NCCS)Cc1cccnc1 [Ligand 12-65-9] | – | 76 |
| 3.6 µM | – | CCCNCC(=O)N(CC(=O)N(CC(=O)N(C)CC(=O)N(CCc1c[nH]c2ccccc12)CC(=O)N(CCC)CC(=O)N(CCc1c[nH]c2ccccc12)CC(=O)NCCS)Cc1ccccc1)Cc1cccnc1 [Ligand 12-79-4] (H-[NPrGly][NGly(CH2(3-pyridyl))][Nphe][Sar][Gly(N(CH2)2(3-indolyl))][NPrGly][Gly(N(CH2)2(3-indolyl))]-Cysteamide) | 69 | – |

Second part, the compound before the results:

| Structure (SMILES) | Kd (Table 3) | Kd (Table 2) | Qmax (Table 3) | Qmax (Table 2) |
| --- | --- | --- | --- | --- |
| CCCN(CC(=O)N(CCc1c[nH]c2ccccc12)CC(=O)NCCS)C(=O)CN(CCc1c[nH]c2ccccc12)C(=O)CN(C)C(=O)CN(Cc1cccnc1)C(=O)CN(CCSC)C(=O)CNCc1cccnc1 [Ligand 16-64-2] (H-[NGly(CH2(3-pyridyl))][N(2-mercaptoethyl)Gly](Me)[NGly(CH2(3-pyridyl))][Sar][Gly(N(CH2)2(3-indolyl))][NPrGly][Gly(N(CH2)2(3-indolyl))]-Cysteamide) | 5.5 µM | – | 49 | – |
| COCCN(CC(=O)N(CC(=O)N(CCCNC(=N)N)CC(=O)N(CC(=O)N(CCC(=O)O)CC(=O)N(C)CC(=O)NCCS)Cc1cccnc1)Cc1ccccc1)C(=O)CNCc1cccnc1 [Ligand 18-28-12] (H-[NGly(CH2(3-pyridyl))][Nme][Nphe][Gly(N-(CH2)3-guanidino)][NGly(CH2(3-pyridyl))][N(CH2CH2COOH)Gly][Sar]-Cysteamide) | – | 16 µM | – | 41 |
| CSCCN(CC(=O)N(CCCN)CC(=O)N(CC(=O)N(CCC(=O)O)CC(=O)N(C)CC(=O)NCCS)Cc1cccnc1)C(=O)CN(Cc1ccccc1)C(=O)CNCc1cccnc1 [Ligand 16-64-4] (H-[NGly(CH2(3-pyridyl))][Nphe][X1][Gly(N(CH2)3NH2)][NGly(CH2(3-pyridyl))][N(CH2CH2COOH)Gly][Sar]-Cysteamide) | 28 µM | – | 33 | – |
| CCCN(CC(=O)N(CCc1c[nH]c2ccccc12)CC(=O)NCCS)C(=O)CN(CCc1c[nH]c2ccccc12)C(=O)CN(C)C(=O)CN(Cc1cccnc1)C(=O)CN(CCOC)C(=O)CNCc1cccnc1 [Ligand 15-91-1] (H-[NGly(CH2(3-pyridyl))][Nme][NGly(CH2(3-pyridyl))][Sar][Gly(N(CH2)2(3-indolyl))][NPrGly][Gly(N(CH2)2(3-indolyl))]-Cysteamide) | 66 µM | – | 80 | – |
| COCCNCC(=O)N(CCc1c[nH]c2ccccc12)CC(=O)N(CCc1c[nH]c2ccccc12)CC(=O)N(CCCN)CC(=O)NCCS [Ligand 16-77-4] (H-[Nme][Gly(N(CH2)2(3-indolyl))][Gly(N(CH2)2(3-indolyl))][Gly(N(CH2)3NH2)]-Cysteamide) | – | 4.3 µM | – | 44 |
| CCCN(CC(=O)N(CCc1c[nH]c2ccccc12)CC(=O)NCCS)C(=O)CN(CCc1c[nH]c2ccccc12)C(=O)CN(C)C(=O)CN(CCCNC(=N)N)C(=O)CN(CCc1c[nH]c2ccccc12)C(=O)CNCCC(=O)O [Ligand 18-28-7] (H-[N(CH2CH2COOH)Gly][Gly(N(CH2)2(3-indolyl))][Gly(N-(CH2)3-guanidino)][Sar][Gly(N(CH2)2(3-indolyl))][NPrGly][Gly(N(CH2)2(3-indolyl))]-Cysteamide) | 5.6 µM | – | 42 | – |
